Columns and labels:
[1] = system: adult subjects with relapsing MS; test: Time to first 24-week confirmed disability accumulation (CDA) on EDSS; assay type: in vivo, human
Procedure: (§1) Secondary efficacy variables and testing strategy: Four secondary efficacy endpoints were analyzed as per the statistical testing strategy outlined in FIG. 1. • Change from baseline to Week 108 in fatigue-related symptoms as measured by the symptoms domain of the FSIQ-RMS patient-reported outcome [Fatigue] • Cumulative number of combined unique active lesions from baseline to Week 108 on brain MRI [CUALs] • Time to first 12-week confirmed disability accumulation (CDA) from baseline to EOS on Expanded Disability Status Scale (EDSS) [12-week CDA] • Time to first 24-week CDA from baseline to EOS on EDSS [24-week CDA]
A 24-week CDA is an increase of at least 1.5 in EDSS for subjects with a baseline EDSS score of 0.0 or an increase of at least 1.0 in EDSS for subjects with a baseline EDSS score of 1.0 to 5.0, or an increase of at least 0.5 in EDSS for subjects with a baseline EDSS score ≥5.5 which is to be confirmed after 24 weeks.
(§2) Baseline EDSS is defined as the last EDSS score recorded prior to randomization. The initial EDSS increase, meeting the above criteria, is defined as the onset of disability accumulation.
(§3) All EDSS measurements (with or without relapse, at a scheduled or unscheduled visit) were used to determine the onset of disability accumulation. […]

[2] = 12-lead ECG heart rate on Day 1, change from pre-dose; assay type: in vivo, human
Procedure: As per up-titration regimen, the dose of ponesimod on Day 1 is 2 mg.

[3] = system: Patients (18-55 years) with RMS; test: No evidence of disease activity (NEDA-3) status; assay type: in vivo, human; details: PON 20 mg vs TER 14 mg; week 108
Procedure: In this study, prespecified MRI-based endpoints and no evidence of disease activity (NEDA) status is evaluated.
Patients (18-55 years) with RMS (expanded disability status scale scores: 0-5.5) were randomized (1:1) to receive ponesimod (PON) 20 mg or teriflunomide (TER) 14 mg for 108 weeks. MRI assessments were: volume of T2 lesions; mean number of new gadolinium-enhancing (Gd+) T1 lesions and new/enlarging T2 lesions; and absence of active MRI lesions at week 108. NEDA-3 status (absence of confirmed relapse, Gd+T1 lesions and new/enlarging T2 lesions on annual MRIs, and 12-week confirmed disability accumulation) was evaluated from baseline to week 108.

[4] = system: adult subjects with relapsing MS; test: Combined unique active lesions (CUAL) on brain MRI from baseline to Week 108; assay type: in vivo, human
Procedure: as §1
CUAL are new Gd+T1 lesions plus new or enlarging T2 lesions (without double-counting of lesions).
MRI scans were performed at Visits 2 (Baseline), 10 (Week 60), and 14 (EOT) and at any unscheduled visit (U1, U2, etc.). If applicable, MRI scans also were performed at the corresponding visits in the PTOP (Visits 10A and 14A). Testing at all visits were performed up to 7 days prior to or after the visit date.
MRI variables included the number and volume of new and total Gd+ lesions on T1-weighted MRI scans, number of new and enlarging lesions and lesion volume on T2-weighted MRI, and global measures of loss of brain tissue.
T1-weighted imaging before and after i.v. administration of 0.1 mmol/kg body weight (=0.2 mL/kg) of Gd as well as PD-T2-weighted imaging was performed. […]

[5] = ALT increase relative to ULN; assay type: in vivo, human; details: ponesimod 20 mg arm, teriflunomide 14 mg arm
[6] = system: adult subjects with relapsing MS; test: Time to first 12-week confirmed disability accumulation (CDA) on EDSS; assay type: in vivo, human
Procedure: as §1
A 12-week CDA is an increase of at least 1.5 in EDSS for subjects with a baseline EDSS score of 0.0 or an increase of at least 1.0 in EDSS for subjects with a baseline EDSS score of 1.0 to 5.0, or an increase of at least 0.5 in EDSS for subjects with a baseline EDSS score ≥5.5 which is to be confirmed after 12 weeks.
as §2, §3

[7] = Treatment-emergent adverse events, Safety Set
Procedure: A prospective, multicenter, randomized, double-blind, active controlled, parallel-group, phase III, superiority study was conducted.
The Safety Set (SAF) included all randomized subjects who received at least one dose of study treatment. Subjects were analyzed based on actual treatment taken, not randomized treatment.

[8] = Reasons for premature treatment discontinuation; assay type: in vivo
Procedure: A total of 1468 subjects were screened. Of those, 1133 subjects were randomized (567 to ponesimod 20 mg and 566 to teriflunomide 14 mg) across 162 sites in 28 countries, and 1131 subjects received at least one dose of study drug. The disposition of subjects is summarized in Table 1 and a summary of reasons (primary reason) for treatment discontinuation are shown in Table 2. Overall treatment and study discontinuation were balanced across both treatment arms. A total of 6.5% and 2.5% of the subjects discontinued due to AEs or tolerability related reasons in ponesimod 20 mg and teriflunomide 14 mg, respectively, while 1.9% and 4.3% discontinued due to efficacy related reasons. There were 2 deaths reported during the study—both on teriflunomide 14 mg.

[9] = ponesimod 20 mg vs teriflunomide 14 mg, stratified Cox regression
[10] = ponesimod 20 mg, not statistically significant
[11] = Day 1 (ponesimod dose 2 mg per up-titration), Safety Set, N = 565 / 566
[12] = Safety Set, ponesimod 20 mg N = 565, teriflunomide 14 mg N = 566
[13] = ponesimod 20 mg, teriflunomide 14 mg

CCC/N=C1\S/C(=C\c2ccc(OC[C@H](O)CO)c(Cl)c2)C(=O)N1c1ccccc1C [Ponesimod, (R)-5-[3-chloro-4-(2,3-dihydroxy-propoxy)-benz[Z]ylidene]-2-([Z]-propylimino)-3-o-tolyl-thiazolidin-4-one]
Time to first 24-week CDA, hazard ratio [1, 9]: 0.84
Reduction of the risk of 24-week CDA compared to teriflunomide 14 mg [1, 10]: 16%
Mean heart rate reduction compared to pre-dose (maximum) ([2]; Day 1, 2-hours post dose, ponesimod arm dose on Day 1 is 2 mg): −8.7 bpm
ECG HR effect: time of nadir / maximum mean heart rate reduction post-dose ([2]; Day 1, first dose (ponesimod 2 mg per up-titration)): 2 h
Subjects with asymptomatic post-dose HR≤40 bpm ([2]; Day 1, all had pre-treatment HR<55 bpm): 3
NEDA-3, odds ratio (OR) [3]: 1.70
Reduction of the number of CUALs between baseline and week 108 compared to teriflunomide 14 mg ([4]; ponesimod 20 mg): 56%
CUAL treatment effect (Rate Ratio) ([4]; ponesimod 20 mg vs teriflunomide 14 mg, baseline to Week 108): 0.44
Proportion of subjects who experienced ALT increase >3×ULN [5]: 17.3%
Proportion of subjects who experienced ALT increase >8×ULN [5]: 0.7%
Time to first 12-week CDA, hazard ratio [6, 9]: 0.83
Reduction of the risk of 12-week CDA compared to teriflunomide 14 mg [6, 10]: 17%
AESI effect on heart rate and rhythm (including hypotension) on Day 1: Subjects with at least one AE [7, 11]: 2.1%
AESI heart rate and rhythm on Day 1, PT: Electrocardiogram QT prolonged [7, 11]: 0 n
AESI heart rate and rhythm on Day 1, PT: Presyncope [7, 11]: 0 n
Subject with at least one AE (treatment-emergent) [7, 12]: 88.8%
Subject with at least one AE leading to study drug discontinuation [7, 12]: 8.7%
Subject with at least one Fatal AE [7, 12]: 0 n
Subject with at least one Serious AE [7, 12]: 8.7%
TEAEs leading to premature discontinuation of study drug, SOC: Reproductive system and breast disorders [7, 12]: 0 n
TEAEs leading to premature discontinuation of study drug, SOC: Surgical and medical procedures [7, 12]: 0 n
Treatment-emergent AESI: Hepatobiliary disorders/Liver enzyme abnormality [7, 12]: 25.7%
Treatment-emergent AESI: Hypertension [7, 12]: 10.1%
Treatment-emergent AESI: Pulmonary events [7, 12]: 8.0%
TEAE: ALT increased [7, 13]: 19.5%
TEAE: headache [7, 13]: 11.5%
TEAE: nasopharyngitis [7, 13]: 19.3%
TEAE: upper respiratory tract infection [7, 13]: 10.6%
Premature treatment discontinuation: Death [8, 12]: 0 n
Subjects who discontinued due to AEs or tolerability related reasons [8, 13]: 6.5%
